Measured values reported in US20060263895A1, “Method for monitoring the stereoselectivity and relative rate of organic chemical reactions” (priority 2005, published 2006).

Experiments:
[1] = HKR of (±)-propylene oxide under standard neat 'Jacobsen conditions' (NMR conversion, chiral HPLC ee); details: for NMR conv. (time): 3 h; for NMR conv. (time) / % ee (HPLC): loading 0.25 mol %; for % ee (HPLC) / % ee of the 1,2-propanediol product, as observed by chiral HPLC (lower number): + = (S), − = (R); for % ee of the 1,2-propanediol product, as observed by chiral HPLC (lower number): neat propylene oxide, 0.55 equiv. H2O, 0.25 mol % catalyst, 3 h reaction time
Method in brief: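 Co(III)-salen catalyst (0.25 mol %) with neat (±)-propylene oxide and water (0.55 equiv.), added at 0° C., then stirred at room temperature, usually 3 h (longer if <5% conversion). Conversion by 1H NMR; diol isolated, derivatized to bis(p-bromobenzoate), ee by chiral HPLC.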

[2] = Catalyst performance in the ISES cuvette (biphasic HKR), ee of isolated diol by chiral HPLC; details: diol isolated from merged ISES cuvettes
Experimental: For several catalysts, control experiments were run to assess whether running the HKR under biphasic conditions influences the enantioselectivity of these Co(III)-salen HKR catalysts. In such cases, parallel duplicate ‘double-cuvette’ runs were chosen (i.e. two HLADH cuvettes and two TBADH cuvettes for a single catalyst). Following the ISES runs, the contents of all four reporting cuvettes were merged. Unreacted epoxide was rapidly removed under Ar stream. Following dilution with CH2Cl2 (˜50 mL), sodium sulfate was added to adsorb remaining water. The resulting organic solution was filtered and the filter cake washed with CH2Cl2 (2×20 mL). Following evaporation of the solvent, the crude diols were derivatized directly with p-bromobenzoyl imidazole to yield the 1,2-propanediol bis(pbromobenzoate) esters, which were then purified by silica gel chromatography to estimate diol yields. Enantiomeric excesses were determined using chiral HPLC, as before. […] Indeed, the ee's seen from diol isolated directly out of the cuvette generally appear slightly higher than those obtained under ‘Jacobsen conditions,’ probably reflecting the shorter reaction times employed in the ISES experiment.

[3] = Double cuvette-ISES (in situ enzymatic screening) of Co(III)-salen mediated HKR of (±)-propylene oxide
Method in brief: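 Co(III)-salen catalysts (0.25 mol %) in CHCl3 with (±)-propylene oxide (7.2 M in organic layer), overlaid with aqueous reporting layers in 50 mM sodium pyrophosphate, final pH 8.6. Reporters: 0.35 U HLADH/7.2 mM NAD+ ((S)-diol) or 0.35 U TBADH/2.2 mM NADP+ ((R)-diol). A340 increase gives enantioselectivity and relative rate estimates.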

[4] = target: T1, alcohol dehydrogenase from Thermoanaerobium brockii (TBADH) (Thermoanaerobacter brockii, UniProt P14941); details: read-out: reported Km value for NADP+ with TBADH; cited from earlier work
T1 construct: purchased
T1 sequence (P14941 1-352): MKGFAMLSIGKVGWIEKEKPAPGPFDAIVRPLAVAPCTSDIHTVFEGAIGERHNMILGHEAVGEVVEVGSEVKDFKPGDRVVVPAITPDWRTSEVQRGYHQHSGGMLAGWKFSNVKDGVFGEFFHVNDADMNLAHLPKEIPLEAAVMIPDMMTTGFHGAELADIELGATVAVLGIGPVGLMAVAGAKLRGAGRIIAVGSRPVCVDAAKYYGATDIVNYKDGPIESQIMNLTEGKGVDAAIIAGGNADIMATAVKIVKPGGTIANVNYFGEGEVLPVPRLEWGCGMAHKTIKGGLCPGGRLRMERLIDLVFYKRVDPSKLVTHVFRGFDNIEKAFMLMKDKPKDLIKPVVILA

[5] = [total 1,2-propanediol] in aqueous ISES layer by 1H NMR
Experimental: The concentration of 1,2-propanediol in the aqueous layer was estimated under typical ISES conditions using 1H NMR spectroscopy. The bilayer was prepared as usual for double cuvette-ISES (Section V), but for the substitution of D2O for H2O in the buffer, and the elimination of the dehydrogenase enzymes. After 15 min, the aqueous layer (300 μL of 500 μL total) was withdrawn and mixed with a fresh solution of imidazole of known concentration (also 300 μL in D2O), as an internal concentration standard. Accumulation of the 1H NMR spectrum, followed by integration and quantitation, provided an experimental measure of [total diol] in the aqueous reporting layer at t=15 minutes for the catalyst under investigation. The observed diol concentrations for ten catalysts examined in this way are collected in Table S6, below. These have been normalized to the value for the catalyst derived from salen 3b (arbitrarily assigned a rate of 1.0).

HLADH = target: T2, HLADH (Equus caballus, UniProt P00327); assay: HLADH oxidation of 1,2-hexenediol; format: biochemical, horse
T2 construct: purchased; host or cells: equine liver
Text: (§1) The following examples illustrate the invention with respect to an in situ enzymatic screening (ISES) method to predict the enantioselectivity of chiral catalysts for the hydrolytic kinetic resolution (HKR) of (±) hexene oxide. Above, it was shown that the method of the invention may be employed to predict the enantioselectivity and relative rate of a catalyst library for HKR of (±)-propylene oxide using horse liver alcohol dehydrogenase (HLADH) and Thermoalaerobium brockii alcohol dehydrogenase (TBADH).

[6] = target: T3, Lactobacillus kefir alcohol dehydrogenase (LKADH) (Lentilactobacillus kefiri, UniProt Q6WVP7); assay: LKADH oxidation of 1,2-hexenediol; format: biochemical
T3 sequence (Q6WVP7 1-252): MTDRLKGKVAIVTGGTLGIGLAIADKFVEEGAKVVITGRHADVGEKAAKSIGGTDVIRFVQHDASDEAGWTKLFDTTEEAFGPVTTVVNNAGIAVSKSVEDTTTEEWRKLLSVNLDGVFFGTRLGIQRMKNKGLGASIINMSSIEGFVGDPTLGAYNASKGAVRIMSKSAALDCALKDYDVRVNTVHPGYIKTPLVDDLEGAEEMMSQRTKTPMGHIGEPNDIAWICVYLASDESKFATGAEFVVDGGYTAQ
Text: as §1

[7] = HKR of (±)-hexene oxide under neat conditions; details: in 30 min, 2.0 mol % catalyst, 25° C.
Experimental: Co(III)-salen (acetate) catalysts were evaluated for HKR of (±)-hexene oxide, under neat conditions, similar to those described by Jacobsen and co-workers (Schaus, S. E.; Brandes, B. D.; Larrow, J. F.; Tokunaga, M.; Hansen, K. B.; Gould, A. E.; Furrow, M. E.; Jacobsen, E. N. J. Am. Chem. Soc. 2002, 124, 1307-1315). Reactions were stopped after 0.5 h, to obtain the enantiopurity of the 1,2-hexenediol produced at relatively early reaction times, for comparison with biphasic ISES predictions.
A typical procedure follows: To the Co(III)-salen catalyst derived from 1e (16.6 mg, 23.2 μmol, 2.0 mol %) at rt was added (±)-hexene oxide (116 mg, 1.16 mmols). The mixture was cooled to 0° C. Then water (11.4 μL, 0.64 mmols, 0.55 equiv.) was added and the flask was capped tightly and stirred 25° C. for 30 min. The progress of the reaction was estimated by ^1H NMR, the reaction mixture was cooled to 0° C., an aliquot was then withdrawn and dissolved in CDCl3 at 0° C. bath. After distilling over the unreacted epoxide, the diol product was collected, and then itself distilled again by Kugelrohr. When the reaction conversion was more than 50% in 30 min, 15 min reaction time was used (for catalyst 1e) to get the product diol.
To determine ee, the isolated diol was derivatized using p-bromobenzoyl imidazole (2.2 equiv.) in THF in the presence of NaH (4 equiv.) at rt for 5 min. […]

[8] = reaction stopped at the time given (mostly 3 h)
[9] = bilayer of pH 8.6 buffer over 7.2 M epoxide in CHCl3, 0.25 mol % catalyst, 15-35 min, + = (S), − = (R)

T2 sequence (P00327 whole entry): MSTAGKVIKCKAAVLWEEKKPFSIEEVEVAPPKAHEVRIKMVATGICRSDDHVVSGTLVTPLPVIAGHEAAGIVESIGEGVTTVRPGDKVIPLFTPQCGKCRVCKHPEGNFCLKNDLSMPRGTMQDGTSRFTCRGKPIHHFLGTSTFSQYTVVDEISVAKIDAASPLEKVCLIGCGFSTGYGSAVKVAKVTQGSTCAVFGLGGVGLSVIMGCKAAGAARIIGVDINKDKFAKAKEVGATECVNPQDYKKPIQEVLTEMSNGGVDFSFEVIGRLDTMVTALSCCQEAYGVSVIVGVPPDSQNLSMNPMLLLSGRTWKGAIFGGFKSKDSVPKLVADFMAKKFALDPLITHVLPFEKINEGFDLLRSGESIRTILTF

Compound | NMR conv. (time) [1] | % ee (HPLC) [1, 8] | % ee measured neat 'Jacobsen conditions' [1] [% ee] | % ee of the 1,2-propanediol product, as observed by chiral HPLC (lower number) [1] | % ee measured biphasic conds. [2] [% ee] | % ee predicted double cuvet-ISES ([3]; bilayer) [% ee] | % ee of the 1,2-propanediol product, as predicted by double-cuvette ISES (upper number) [3, 9] | other results
CC(C)(C)c1cc(C=NC[C@H](Cc2cccc3ccccc23)N=Cc2cc(C(C)(C)C)cc(C(C)(C)C)c2O)c(O)c(C(C)(C)C)c1 [Salen 4a, N,N′-Bis(3′,5′-di-tert-butylsalicylidene)-(1S)-(α-naphthylmethyl)-1,2-ethylenediamine] | 35 (3 h) % | +76 (S) % ee | 76 | +76 % ee | 82 | 77 | +77 % ee | –
NC(=O)c1ccc[n+]([C@@H]2O[C@H](COP(=O)([O-])OP(=O)(O)OC[C@H]3O[C@@H](n4cnc5c(N)ncnc54)[C@H](OP(=O)(O)O)[C@@H]3O)[C@@H](O)[C@H]2O)c1 [NADP+] | – | – | – | – | – | – | – | Km [4]: 13 µM
CO[C@H]1[C@@H]2OC(C)(C)O[C@@H]2COC1(CN=Cc1cc(C(C)(C)C)cc(C(C)(C)C)c1O)N=Cc1cc(C(C)(C)C)cc(C(C)(C)C)c1O (stereo partly drawn) [Salen 7a, N,N′-Bis(3′,5′-di-tert-butylsalicylidene)-3-O-methyl-4,5-O-isopropylidene-1,2-dideoxy-Dfructopyranosyl-1,2-diamine] | – | – | −59 | – | −55 | −33 | – | NMR conv. (time) ([1]; listed as 7a*): 7 (3 h) %; % ee (HPLC) ([1]; reaction stopped at the time printed in the row (mostly 3 h), listed as 7a*): −59 (R) % ee; % ee of the 1,2-propanediol product, as observed by chiral HPLC (lower number) ([1]; listed as 7a*): −59 % ee; % ee of the 1,2-propanediol product, as predicted by double-cuvette ISES (upper number) ([3]; bilayer of pH 8.6 buffer over 7.2 M epoxide in CHCl3, 0.25 mol % catalyst, 15-35 min, + = (S), − = (R), listed as 7a*): −33 % ee
N,N′-Bis(3′,5′-di-tert-butylsalicylidene[1R-(1α,2α,5α)]-2-amino-7,7-dimethyl-2-bicyclo[3.3.1]heptane-ethanamine [Salen 1a] | 12 (3 h) % | +72 (S) % ee | 72 | +72 % ee | 87 | 56 | +56 % ee | [diol] (mM) @ 15 min ([5]; aqueous ISES layer, 1H NMR, t = 15 min): 19 mM; Norm. ([5]; normalized to the catalyst derived from salen 3b (rate 1.0)): 0.20
CCCCC(O)CO (stereo not drawn) | – | – | – | – | – | – | – | selectivity of HLADH for the oxidation of 1,2-hexenediol (HLADH): modest (S)-selectivity; selectivity of LKADH for the oxidation of 1,2-hexenediol [6]: high (S)-selectivity
N,N′-Bis(3′,5′-diiodosalicylidene)-[1R-(1α,2α,5α)]-2-amino-7,7-dimethyl-2-bicyclo[3.3.1]heptaneethanamine [Salen 1e] | – | +28 (S) % ee | – | +28 % ee | – | – | – | % ee of the 1,2-propanediol product, as predicted by double-cuvette ISES (upper number) ([3]; catalyst tested at 0.05 mol %, bilayer): +47 % ee; reaction conversion [7]: more than 50%
